Measurements published in patent US12303497B2, “Anti-androgens for the treatment of metastatic castration-sensitive prostate cancer” (priority 2019, dated 2025).

Assays:
[1] = molecular target: CYP2D6 (Homo sapiens, UniProt P10635); test: In vitro effect on CYP; conditions: therapeutically relevant concentrations
[2] = molecular target: P-gp (Homo sapiens, UniProt P08183); test: In vitro transporter substrate study
Chain of P-gp (P08183 whole entry): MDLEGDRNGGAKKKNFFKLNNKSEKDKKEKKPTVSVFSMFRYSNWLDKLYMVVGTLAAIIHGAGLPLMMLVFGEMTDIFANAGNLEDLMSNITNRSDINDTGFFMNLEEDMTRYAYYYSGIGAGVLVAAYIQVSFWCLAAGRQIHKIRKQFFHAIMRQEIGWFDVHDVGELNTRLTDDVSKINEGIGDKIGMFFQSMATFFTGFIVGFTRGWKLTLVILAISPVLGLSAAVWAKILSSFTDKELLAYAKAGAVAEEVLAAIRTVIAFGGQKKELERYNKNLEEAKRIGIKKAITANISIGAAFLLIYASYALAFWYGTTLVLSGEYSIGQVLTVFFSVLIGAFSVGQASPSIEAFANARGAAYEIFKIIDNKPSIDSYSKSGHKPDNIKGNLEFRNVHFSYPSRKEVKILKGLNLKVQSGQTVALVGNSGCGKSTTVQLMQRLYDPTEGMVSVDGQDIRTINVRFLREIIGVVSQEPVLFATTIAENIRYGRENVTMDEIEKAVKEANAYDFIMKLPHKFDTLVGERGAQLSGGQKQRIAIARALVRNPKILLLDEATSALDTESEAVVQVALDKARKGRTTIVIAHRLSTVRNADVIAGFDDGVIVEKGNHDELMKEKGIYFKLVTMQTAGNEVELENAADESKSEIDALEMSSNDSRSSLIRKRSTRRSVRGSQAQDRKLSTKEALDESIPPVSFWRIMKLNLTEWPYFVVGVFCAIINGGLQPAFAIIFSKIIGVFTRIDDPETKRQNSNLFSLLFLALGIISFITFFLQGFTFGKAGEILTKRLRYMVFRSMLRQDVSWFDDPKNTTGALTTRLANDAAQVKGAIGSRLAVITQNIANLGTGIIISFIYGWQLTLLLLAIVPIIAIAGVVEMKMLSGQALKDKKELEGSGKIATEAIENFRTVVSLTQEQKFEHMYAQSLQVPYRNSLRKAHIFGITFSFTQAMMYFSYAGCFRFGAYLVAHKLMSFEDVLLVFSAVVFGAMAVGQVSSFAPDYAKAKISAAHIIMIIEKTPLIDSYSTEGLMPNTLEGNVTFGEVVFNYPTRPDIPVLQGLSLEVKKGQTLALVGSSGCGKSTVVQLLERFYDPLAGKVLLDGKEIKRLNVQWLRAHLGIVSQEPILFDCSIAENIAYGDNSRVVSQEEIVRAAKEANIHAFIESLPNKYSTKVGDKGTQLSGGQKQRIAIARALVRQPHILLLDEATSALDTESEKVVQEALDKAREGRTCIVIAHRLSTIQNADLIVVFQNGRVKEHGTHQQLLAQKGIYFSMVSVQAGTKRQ

Chain of CYP2D6 (P10635 whole entry): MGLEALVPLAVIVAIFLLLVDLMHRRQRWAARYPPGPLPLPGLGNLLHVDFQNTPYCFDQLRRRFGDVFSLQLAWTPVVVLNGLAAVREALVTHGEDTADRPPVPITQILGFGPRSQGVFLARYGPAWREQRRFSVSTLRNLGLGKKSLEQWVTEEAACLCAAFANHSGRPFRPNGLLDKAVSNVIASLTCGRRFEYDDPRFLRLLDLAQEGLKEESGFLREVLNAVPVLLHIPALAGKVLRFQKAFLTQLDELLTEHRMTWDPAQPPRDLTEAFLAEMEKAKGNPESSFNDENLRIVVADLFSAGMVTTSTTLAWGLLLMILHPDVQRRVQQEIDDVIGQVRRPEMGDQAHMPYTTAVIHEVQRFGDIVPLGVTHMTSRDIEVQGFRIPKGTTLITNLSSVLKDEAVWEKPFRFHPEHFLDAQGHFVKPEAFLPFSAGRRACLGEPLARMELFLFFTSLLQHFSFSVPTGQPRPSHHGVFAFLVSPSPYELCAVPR

In the case of `CNC(=O)c1ccc(N2C(=S)N(c3cnc(C#N)c(C(F)(F)F)c3)C(=O)C23CCC3)cc1F` [Apalutamide, 4-[7-(6-cyano-5-trifluoromethylpyridin-3-yl)-8-oxo-6-thioxo-5,7-diazaspiro[3.4]oct-5-yl]-2-fluoro-N-methylbenzamide], the “Effect on CYP2D6” value [1] is reported as “do not affect” and the “Substrate for P-gp” value [2] is reported as “substrates”.
